Measurements taken from patent US5916925A, “Pharmaceutical composition for treatment of dementia” (Takeda Chemical Industries, Ltd., priority 1996, dated 1999).
Several values for one entry are separate records, joined by “and”; a condition that tells them apart may be missing. Equal entries are not always repeated. Structures can show the parent of a compound that is named as a salt. Where two headings read alike, the source gives them in different places.

Columns and labels:
[1] = test system: patients; settings: cited from earlier work
[2] = test system: passive avoidance learning deficit in old rats; assay: passive avoidance learning in old rats; type: in vivo, rats of the Fischer 344 strain; settings: idebenone 3 mg/kg, Compound A 0.3 mg/kg, oral, or both; for retention trials, learning deficit: 24 hours after shock loading
Method: (§1) The old rats were divided into the following four groups.
(§2) Passive avoidance learning tests were started on day 14 of treatment, and Morris water maze learning tests on day 20 of treatment.
The passive avoidance learning test was performed using a chamber consisting of light and dark compartments. […] After a rat moved to the dark compartment, the rat was kept there for about 10 seconds with the door closed. One to two hours after such habituation trials, acquisition trials were performed.
In acquisition trials, after a rat moved to the dark compartment, a foot shock (0.4 mA, 3 seconds) was given through the grid floor. Retention trials were performed 24 hours after acquisition trials.
In each trial, the latency from opening of the slide door till the animal moved to the dark compartment (step-through latency) was measured.

[3] = test system: water maze learning deficit in old rats; assay: Morris water maze learning in old rats; type: in vivo, rats of the Fischer 344 strain; settings: for average latency to find the platform for all trials, vs control group / water maze learning deficit, overall: idebenone 3 mg/kg, Compound A 0.3 mg/kg, oral, or both
Method: as §1, §2
In pretraining which was performed for swimming training and motivation for escaping from water, four trials were performed using a water bath, 80 cm in diameter, in a condition that the platform was visible. From the following day, using a water bath, 120 cm in diameter, learning trials, one session (four trials) per day, were performed with the platform being placed below the water.

[4] = test system: GPT; assay: hepatic clinical laboratory value GPT in patients; type: in vivo, human; settings: for GPT Level: single patients
Method: (§3) In patients with senile dementia of Alzheimer's type, a double-blind placebo controlled multicenter comparative study was conducted under the conditions shown below.
(§4) 451 patients with senile dementia of Alzheimer's type (154 males, 297 females)
(§5) (1) Placebo administration
(§6) Oral administration just after every meal
(§7) Clinical laboratory values

[5] = test system: GOT; assay: hepatic clinical laboratory value GOT in patients; type: in vivo, human; settings: for GOT Level: single patients
Method: as §3, §4, §5, §6, §7

[6] = test system: patients with senile dementia of Alzheimer's type; assay: double-blind placebo controlled multicenter study, efficacy parameters (ADAS, CGI, NOSGER, SKT); type: in vivo, human
Method: as §3, §5, §6

[7] = test system: patients with senile dementia of Alzheimer's type; assay: clinical study, safety assessment and dropouts; type: in vivo, human; settings: for subjects dropped out: subjects in this study (groups not separated)
Method: as §3, §4, §5
Group 3 (placebo administration), 153 patients (54 males, 99 females; average age 70 years)
as §6, §7

[8] = test system: patients with senile dementia of Alzheimer's type; settings: 90 mg per day per adult; cited from earlier work
[9] = 6 Months of Administration, 90 mg 3 times daily
[10] = 6 Months of Administration, 120 mg 3 times daily
[11] = 270 or 360 mg per day, 6 months, vs placebo
[12] = Pre-administration (baseline), 90 mg 3 times daily group
[13] = Pre-administration (baseline), 120 mg 3 times daily group
[14] = 90 mg, 120 mg 3-times-a-day and placebo

Nc1c2c(nc3ccccc13)CCCC2 [tacrine]
patients who withdrew from the treatment ([1]; 30-week administration of tacrine): 74%
subjects dropped out ([1]; high-dose tacrine group, by 30 weeks): 74%
subjects dropped out ([1]; low-dose tacrine group, until final administration by 30 weeks): 59%
subjects dropped out ([1]; moderate-dose tacrine group, by 30 weeks): 71%
dropouts or discontinuations due to adverse reactions ([1]; tacrine, study period): a large number of dropouts or discontinuations occurred due to adverse reactions
adverse effects on long-term administration ([1]; tacrine): hepatic toxicity

O=C(CCC1CCN(Cc2ccccc2)CC1)c1ccc2c(c1)NCCCC2 [Compound A, 8-[1-oxo-3-(phenylmetyl)piperidin-4-yl]propyl]-2,3,4,5-tetrahydro-1H-1-benzazepine fumarate]
retention trials, learning deficit [2]: tended to show improvements in learning deficit in old rats but the effect was not significant
passive avoidance learning deficit, overall [2]: did not improve passive avoidance learning deficit in old rats
water maze learning (latency to find the platform) ([3]; day 2 of experiment): significant improvement
water maze learning (latency to find the platform) ([3]; day 3 of experiment): did not differ from the control group
average latency to find the platform for all trials, vs control group [3]: did not show significant shortening of average latency compared with the control group
water maze learning deficit, overall [3]: did not improve water maze learning deficit in old rats

COC1=C(OC)C(=O)C(CCCCCCCCCCO)=C(C)C1=O [idebenone, 6-(10-hydroxydecyl) -2,3-dimethoxy-5-methyl-1,4-benzoquinone]
GPT Level [4, 9]: 61 U/L and 54 U/L and 34 U/L and 43 U/L and 26 U/L and 37 U/L and 35 U/L and 50 U/L
GPT Level [4, 10]: 26 U/L and 39 U/L and 43 U/L and 55 U/L and 25 U/L and 38 U/L and 60 U/L
change in GPT level [4, 11]: little change in GPT level and GOT level
GPT Level [4, 12]: 25 U/L and 34 U/L and 36 U/L and 63 U/L and 9 U/L and 14 U/L and 29 U/L and 33 U/L
GPT Level [4, 13]: 22 U/L and 14 U/L and 28 U/L and 29 U/L and 37 U/L and 31 U/L
GOT Level [5, 9]: 45 U/L and 38 U/L and 60 U/L and 86 U/L and 49 U/L and 32 U/L and 47 U/L and 26 U/L and 29 U/L
GOT Level [5, 10]: 41 U/L and 27 U/L and 28 U/L and 34 U/L and 37 U/L and 23 U/L and 131 U/L
change in GOT level [5, 11]: little change in GPT level and GOT level
GOT Level [5, 12]: 19 U/L and 27 U/L and 33 U/L and 32 U/L and 15 U/L and 29 U/L and 13 U/L and 22 U/L
GOT Level [5, 13]: 23 U/L and 24 U/L and 29 U/L and 21 U/L and 25 U/L
ADAS Sum Score, relief compared with placebo ([6]; 90 mg 3-times-a-day, 6 months): significant relief
ADAS Sum Score, relief compared with placebo ([6]; 90 mg 3-times-a-day, 12 months): significant relief
ADAS Sum Score, dose dependence of effect ([6]; 90 mg and 120 mg 3-times-a-day, 6 and 12 months): dose dependent
ADAS Cognitive Score, differences among groups [6, 14]: significant differences among the three groups were noted, with dose dependency
CGI Global Improvement, differences among groups [6, 14]: significant differences among the three groups were noted, with dose dependency
CGI Severity of Disease, differences among groups [6, 14]: significant differences among the three groups were noted, with dose dependency
NOSGER IADL, differences among groups [6, 14]: significant differences among the three groups were noted, with dose dependency
NOSGER Sum Score, differences among groups [6, 14]: significant differences among the three groups were noted, with dose dependency
SKT, differences among groups [6, 14]: significant differences among the three groups were noted, with dose dependency
ADAS Sum Score, relief compared with placebo ([6]; 120 mg 3-times-a-day, 6 months): significant relief
ADAS Sum Score, relief compared with placebo ([6]; 120 mg 3-times-a-day, 12 months): significant relief
effect in comparison with published clinical data on tacrine ([6]; 270 mg (90 mg, 3-times-a-day)): better effects
effect in comparison with published clinical data on tacrine ([6]; 360 mg (120 mg, 3-times-a-day)): better effects
magnitude of effect, irrespective of assessment method ([6]; 360 mg idebenone administration group): marked effect
symptom progression ([6]; FIGS. 1 to 7): symptom progression was surely suppressed
symptom-relieving and symptom progression-suppressing effects, 12 months vs 6 months ([6]; period exceeding 6 months): greater symptom-relieving and symptom progression-suppressing effects are noted at 12 months than at 6 months
incidence and severity of accompanying symptoms ([7]; 90 mg and 120 mg 3-times-a-day vs placebo): No differences were noted among the three groups
subjects dropped out ([7]; by 6 months): 9%
subjects dropped out ([7]; by 12 months): about 15%
elevation of clinical laboratory values (GOT and GPT) ([7]; idebenone administration groups): very low
major objective and subjective symptoms ([7]; three groups together): vertigo, anorexia, sleep disturbance and arthralgia
retention trials, learning deficit [2]: tended to show improvements in learning deficit in old rats but the effect was not significant
passive avoidance learning deficit, overall [2]: did not improve passive avoidance learning deficit in old rats
average latency to find the platform for all trials, vs control group [3]: did not show significant shortening of average latency compared with the control group
water maze learning deficit, overall [3]: did not improve water maze learning deficit in old rats
water maze learning deficit (latency to find the platform) ([3]; latter period of training, idebenone 3 mg/kg oral): slight tendency toward improvement in water maze learning deficit
efficacy in senile dementia of Alzheimer's type [8]: effective
